Entries after “also recorded” stand apart in the source; their conditions may differ.
Tested on: β-oxidation
Experiment: PHA co-polymer composition of lithotrophic C. necator strains with acrylic acid (GCMS of 3-hydroxy acid methyl esters)
Type: cell-based
Experimental: PHA extraction and analysis: After 48 hr of growth in the second media exchange, 100 ml lithotrophic PHA-producing C. necator cultures were induced with 0.3% arabinose where indicated along with 240 ug/mL acrylic acid where indicated and grown for 5 days at 30° C. Cultures were harvest, pelleted, and lyophilized overnight. Freeze dried pellets were weighed for dry cell weight. PHA was purified with 0.2 ml/mg DCW of 13% NaClO^− for 4 hr at 30° C., washed twice with dH2O, washed once with acetone, then dried at 25° C. overnight. 1:1 methanol and HCl in dioxane to a final volume of 3 ml (1% pentadecanoate as internal standard), the tubes were sealed with crimp top and incubated in oil bath at 90° C. for 20 hr. Tubes were placed on ice, once cooled, 2 ml of chloroform was added and vigorously vortexed, 3 ml of dH2O was added followed by extensive vortexing, the organic phase was separated by centrifugation (10 min, 4,000×g), organic phase removed and stored at −20° C. until GCMS analysis.
GCMS analysis: PHA samples were analyzed by GC-MS 5975/7890 (Agilent Technologies™) on a DB-35 ms column. Samples were heated on a gradient from 40 to 250° C. at 5° C./min. The co-polymer composition was determined with the mass spectra of the 3-hydroxy alkanoic acid methyl esters at m/z=103 and NIST Mass Spectral Library™.

C=CC(=O)O [acrylic acid]
effect on PHA composition (PAS826 (wildtype phaC) and PAS827 (ΔphaC), 240 μg/mL acrylic acid with induction): no effect; also recorded: not strongly affected
proportion of 3HO and 3HD (PAS828, 240 μg/mL acrylic acid): decreased to undetectable levels
contribution to PHA composition (PAS828 / PAS829 (UcFatB2, phaC1Pa), 240 μg/mL acrylic acid): did not contribute significantly
copolymer composition compared to no-acrylic acid condition (PAS829, 240 μg/mL acrylic acid): slightly enriched for longer-chain fatty acids
mcl-3HA proportion of PHA (PAS830 (native phaC, chim4, phaC1Ps), with acrylic acid, mean): 72.6%
3HO proportion of PHA (PAS830, with acrylic acid, mean): 54.6%
enrichment of mcl-3HAs (PAS831, after the addition of acrylic acid): minor enrichment
3HD proportion of PHA (PAS831, with acrylic acid, n=2): 7.1%
3HDD proportion of PHA (PAS831, with acrylic acid, n=2): 2.6%
3HO proportion of PHA (PAS831, with acrylic acid, n=2): 61.4%
3HTD proportion of PHA (PAS831, with acrylic acid, n=2): 1.2%
mcl-3HA proportion of PHA (PAS832 (native phaC, UcFatB2, phaC2Pa), with acrylic acid, n=3): 59.4%
3HDD proportion of PHA (PAS832, with acrylic acid, n=3): 36.3%
3HDD proportion of PHA (PAS833 (ΔphaC, UcFatB2, phaC2Pa), with acrylic acid): 60.3%
